In ChEMBL document CHEMBL1141846, “New verticillin and glisoprenin analogues from gliocladium catenulatum, a mycoparasite of aspergillus flavus sclerotia” (1999):

Legend:
Bacillus subtilis [1] = assay: Antibacterial activity against Bacillus subtilis ATCC 6051 at 100 ug/disk by standard petri-plate assay; assay type: functional; conditions: read-out: IZ
Staphylococcus aureus [2] = assay: Antibacterial activity against Staphylococcus aureus ATCC 14053 at 100 ug/disk by standard petri-plate assay; assay type: functional; conditions: read-out: IZ
Bacillus subtilis [3] = assay: Antibacterial activity against Bacillus subtilis ATCC 6051 at 50 ug/disk by standard petri-plate assay; assay type: functional, organism-based
Staphylococcus aureus [4] = assay: Antibacterial activity against Staphylococcus aureus ATCC 14053 at 50 ug/disk by standard petri-plate assay; assay type: functional, organism-based

Row | Molecule | zone of inhibition at 100 µg/disc (Bacillus subtilis [1]) [mm] | zone of inhibition at 100 µg/disc (Staphylococcus aureus [2]) [mm] | inhibition zone (IZ) (Bacillus subtilis [3]) [mm] | inhibition zone (IZ) (Staphylococcus aureus [4]) [mm]
1 | CC(O)[C@@]12SS[C@]3(C(=O)N1C)[C@@H](O)C1([C@@]45c6ccccc6N[C@@H]4N4C(=O)[C@]6(C(C)O)SS[C@]4(C(=O)N6C)[C@H]5O)c4ccccc4N[C@@H]1N3C2=O (stereo partly drawn) [VERTICILLIN D] | 23 | 11 |  | 
2 | CC(=O)[C@@]12SS[C@]3(C(=O)N1C)[C@@H](O)[C@]1([C@@]45c6ccccc6N[C@@H]4N4C(=O)[C@]6(C(C)=O)SS[C@]4(C(=O)N6C)[C@H]5O)c4ccccc4N[C@@H]1N3C2=O [VERTICILLIN E] | 23 | 11 |  | 
3 | CC(=O)[C@@]12SS[C@]3(C(=O)N1C)[C@@H](O)[C@]1([C@@]45c6ccccc6N[C@@H]4N4C(=O)[C@]6(C(C)O)SS[C@]4(C(=O)N6C)[C@H]5O)c4ccccc4N[C@@H]1N3C2=O (stereo partly drawn) [VERTICILLIN F] | 23 | 11 |  | 
4 | GENTAMICIN SULFATE |  |  | 25 | 25
